In patent publication US20260108447A1, “RESIDENT-SKIN-FLORA-IMPROVING AGENT AND EXTERNAL-USE COMPOSITION FOR SKIN” (NIHON SHOKUHIN KAKO CO., LTD., priority 2022, published 2026):

Key:
Assay in all cases: Change in bacteria count (bacterial turbidity OD660) when the sugar is added to the culture medium
Assay type in all cases: cell-based
[1] = system: Staphylococcus hominis (JCM31912); conditions: 24 hours; for effect for promoting proliferation: test example 5, FIG. 5, sentence names no bacterium, taken as S. hominis; for proliferation of S. hominis, relative value (percentage relative to non-sugar-added group): test example 4, OD660, FIG. 4
Experimental: (§1) An investigation was conducted in regard to a change in bacteria count when the α-gluco-oligosaccharide or the β-gluco-oligosaccharide prepared as described above was added to a culture medium and culturing was carried out in culturing of the various bacteria indicated in table 3 as resident skin bacteria under respectively suitable culture conditions.
(§2) Specifically, the various bacteria were cultured overnight using respectively suitable culture media to prepare preculture solutions, and the α-gluco-oligosaccharide or the β-gluco-oligosaccharide prepared as described above was added to 3 mL of fresh culture media so as to reach a final concentration of 0.5 (w/v) %, whereupon 0.03 ml of the preculture liquids was mixed thereinto and cultured for 24 hours, and the bacterial turbidity (OD660) after culturing was measured. Additionally, glucose was added as a sugar to a culture medium and similar tests were performed to arrive at a comparative control. The results were expressed as relative values (percentage relative to non-sugar-added group), where 100% indicated the bacterial turbidity when sterilized ultrapure water was added instead of any sugar.
(§3) The effect for promoting proliferation of S. hominis, S. aureus, C. acnes, C. xerosis, or M. luteus was evaluated in the same manner as in test example 1, except that sophorose prepared at high purity as described above was used as the β-gluco-oligosaccharide composed of disaccharides, and the amount of the sophorose added to the culture medium was set to 0.1 (w/v) %, 0.5 (w/v) %, or 1.0 (w/v) % in terms of final concentration.
(§4) The effect for promoting proliferation of S. hominis, S. aureus, C. acnes, C. xerosis, or M. luteus was evaluated in the same manner as in test example 1, except that laminaribiose and gentiobiose prepared at high purity as described above, as well as commercially available cellobiose (Nacalai Tesque, Inc.), were used as the β-gluco-oligosaccharide composed of disaccharides, and the amount of the β-gluco-oligosaccharide added to the culture medium was set to 0.5 (w/v) % in terms of final concentration.

[2] = system: Micrococcus luteus (JCM1464); conditions: 24 hours; for proliferation of M. luteus, relative value (percentage relative to non-sugar-added group): test example 5, final concentration 0.5 (w/v) %, OD660, FIG. 5
Experimental: as §1, §2, §3, §4

[3] = system: Staphylococcus epidermidis (JCM20345); conditions: 24 hours
Experimental: as §1, §2
Specifically, the effect for promoting proliferation of S. epidermidis was evaluated in the same manner as in test example 1, except that sophorose, laminaribiose, or gentiobiose prepared at high purity as described above was used as the sugar to be added to the culture medium, and the amount of the sugar added to the culture medium was set to 0.3 (w/v) % or 0.5 (w/v) % in terms of the final concentration.
The effect for promoting proliferation of S. epidermidis was evaluated in the same manner as in test example 2, except that sophorose prepared at high purity as described above was used as the β-gluco-oligosaccharide composed of disaccharides, and the amount of the sophorose added to the culture medium was set to 0.1 (w/v) % or 1.0 (w/v) % in terms of the final concentration.

[4] = system: Staphylococcus aureus (ATCC6538); conditions: 24 hours
Experimental: as §1, §2, §3, §4

[5] = system: Cutibacterium acnes (JCM6425); conditions: test example 4; at any of 0.1, 0.5, 1.0 (w/v) %, 24 hours; FIG. 4
Experimental: as §1, §2, §3, §4

[6] = system: Corynebacterium xerosis (JCM1971); conditions: test example 4; at any of 0.1, 0.5, 1.0 (w/v) %, 24 hours; FIG. 4
Experimental: as §1, §2, §3, §4

[7] = final concentration 0.5 (w/v) %
[8] = test example 2, high-purity sugar 0.3 (w/v) % or 0.5 (w/v) % final concentration, FIG. 2
[9] = test example 4, at any of 0.1, 0.5, 1.0 (w/v) %, FIG. 4

Molecule: O=C[C@H](O)[C@@H](O)[C@H](O[C@@H]1O[C@H](CO)[C@@H](O)[C@H](O)[C@H]1O)[C@H](O)CO [cellobiose]
- effect for promoting proliferation [1, 7]: not confirmed to yield an effect for promoting proliferation
- proliferation of M. luteus, relative value (percentage relative to non-sugar-added group) [2]: 111.7%

Molecule: O=C[C@H](O[C@@H]1O[C@H](CO)[C@@H](O)[C@H](O)[C@H]1O)[C@@H](O)[C@H](O)[C@H](O)CO [sophorose, 2-O-β-D-glucopyranosyl-D-glucose]
- effect for promoting proliferation of S. epidermidis [3, 8]: prominent effect for promoting proliferation
- effect for promoting proliferation of S. epidermidis ([3]; test example 3, final concentration 0.1 (w/v) %, FIG. 3): exhibit the effect for promoting proliferation
- effect for promoting proliferation of S. epidermidis, compared with 0.5 (w/v) % of test example 2 ([3]; test example 3, final concentration 1.0 (w/v) %, FIG. 3): no great difference was observed
- proliferation of S. hominis, relative value (percentage relative to non-sugar-added group) [1, 7]: 118.0%
- proliferation of S. hominis, relative value (percentage relative to non-sugar-added group) ([1]; final concentration 1.0 (w/v) %): 118.8%
- effect for promoting proliferation of S. aureus relative to the control [4, 9]: no effect for promoting proliferation
- effect for promoting proliferation of C. acnes relative to the control [5]: no effect for promoting proliferation
- effect for promoting proliferation of M. luteus relative to the control [2, 9]: no effect for promoting proliferation
- effect for promoting proliferation of C. xerosis relative to the control [6]: no effect for promoting proliferation

Molecule: OC[C@H]1O[C@@H](O[C@H]2[C@H](O)[C@@H](CO)OC(O)[C@@H]2O)[C@H](O)[C@@H](O)[C@@H]1O (some centres unmarked) [laminaribiose, reference compound]
- effect for promoting proliferation of S. epidermidis [3, 8]: did not exhibit an effect for promoting proliferation
- effect for promoting proliferation [1, 7]: not confirmed to yield an effect for promoting proliferation
- proliferation of S. aureus, relative value (percentage relative to non-sugar-added group) ([4]; test example 5, final concentration 0.5 (w/v) %, OD660, FIG. 5): 108.5%

Molecule: gentiobiose
- effect for promoting proliferation of S. epidermidis [3, 8]: did not exhibit an effect for promoting proliferation
- effect for promoting proliferation [1, 7]: not confirmed to yield an effect for promoting proliferation
- proliferation of M. luteus, relative value (percentage relative to non-sugar-added group) [2]: 121.9%
